Test results as given in patent publication US11844794B2, “Pharmaceutical compositions” (ADEPTIO PHARMACEUTICALS LIMITED, priority 2017, dated 2023).
≈ marks a conversion by molar mass, not a printed value.

Legend:
[1] = equilibrium aqueous solubility by HPLC; assay type: physicochemical; details: thermodynamic from solid; water, measured by HPLC; read-out: equilibrium solubility in water
Experimental: The aqueous solubilities of salts were measured by an equilibrium method in which an amount of the salt was weighed into a 2 ml vial equipped with a magnetic stirrer bar and water added. In cases where complete dissolution was observed, more material was added until the sample was exhausted. The slurry was then stirred for seven days before isolating the solids by centrifuge-filtration. The solids were analysed by XRPD and the filtrates were analysed by HPLC to determine the amount of (+)-alpha-dihydrotetrabenazine salt in solution. The solubilities were calculated against a calibration curve established for a (+)-alpha-dihydrotetrabenazine sample of known concentration.

amphetamine-induced rats = test: amphetamine-induced locomotor activity, open field test; assay type: in vivo, rat
Experimental: All animal experiments were carried out according to the National Institute of Health (NIH) guidelines for the care and use of laboratory animals, and approved by the National Animal Experiment Board, Finland. Male CD (Charles River Laboratories, Germany) at weight range of 200-250 g (165-200 g upon arrival) were used for the experiments. Animals were housed at a standard temperature (22±1° C.) and in a light-controlled environment (lights on from 7 am to 8 pm) with ad libitum access to food and water.
Locomotor activity of the rats was tested in open field arena. The open field test was performed during the rat light cycle and under a normal lighting evenly distributed to the test chambers. The paths of the rats were recorded by activity monitor (Med. Associates Inc.).
Dosing the vehicle, vehicle-amphetamine, (+)-α-DHTBZ or risperidone was done prior to LMA test. The rats were placed in the centre of the arena, and the path was recorded for 60 minutes.
Animals were grouped as follows: • Group 1: 10 rats treated with Vehicle (t=0 min) and Vehicle (t=30 min) • Group 2: 10 rats treated with Vehicle (t=0 min) and Amphetamine (t=30 min) • Group 3: 10 rats treated with (+)-α-DHTBZ 0.5 mg/kg (t=0 min) and Amphetamine (t=30 min) • Group 4: 10 rats treated with (+)-α-DHTBZ 1 mg/kg (t=0 min) and Amphetamine (t=30 min) • Group 5: 10 rats treated with (+)-α-DHTBZ 1.5 mg/kg (t=0 min) and Amphetamine (t=30 min) • Group 6: 10 rats treated with (+)-α-DHTBZ 2 mg/kg (t=0 min) and Amphetamine (t=30 min) • Group 7: 10 rats treated with risperidone 1 mg/kg (t=0 min) and Amphetamine (t=30 min)
(§1) Rats dosed with either vehicle, (+)-α-DHTBZ 0.5 mg/kg, (+)-α-DHTBZ 1 mg/kg, (+)-α-DHTBZ 1.5 mg/kg, (+)-α-DHTBZ 2 mg/kg or Risperidone 1 mg/kg were subjected to LMA testing first for 30 min and then for 60 minutes after vehicle or amphetamine challenge. Resulting locomotor activity was evaluated in 3 min bins and as a total over the testing period.
as §1, with “stereotypic” for “locomotor”, “period. […]” for “period.”

[2] = pharmacokinetics after oral administration to male Beagle dogs; assay type: in vivo, Beagle dog
Experimental: Doses were administered orally, via gavage, at a dose volume of 2.00 mL/kg yielding the target dose level of 1.50 mg/kg. Following dosing, 10 mL of tap water was flushed down the gavage to ensure the entire dose was dispensed. Following dosing over four sessions each with one of the test materials, serial whole blood samples (circa. 1.3 mL) were collected from a jugular vein then placed into K2 EDTA treated tubes pre-dose and then 0.25, 0.50, 1, 2, 3, 4, 6, 12 and 24 hours post dose. Blood samples were placed immediately on a cool-block before being centrifuged within 15 minutes at 3,000×g, 10 minutes, 4° C. and resultant plasma drawn off. […] Doses were administered orally, via gavage, at a dose volume of 2.00 mL/kg yielding the target dose level of 1.50 mg/kg. Following dosing, 10 mL of tap water was flushed down the gavage to ensure the entire dose was dispensed. Following dosing over four sessions each with one of the test materials, serial whole blood samples (circa. 1.3 mL) were collected from a jugular vein then placed into K2 EDTA treated tubes pre-dose and then 0.25, 0.50, 1, 2, 3, 4, 6, 12 and 24 hours post dose. Blood samples were placed immediately on a cool-block before being centrifuged within 15 minutes at 3,000×g, 10 minutes, 4° C. and resultant plasma drawn off.

[3] = Study 1, all the tested doses (0.5, 1, 1.5 and 2 mg/kg)
[4] = male Beagle dogs, oral 1.50 mg/kg (freebase equivalent)

COc1cc2c(cc1OC)[C@H]1C[C@@H](O)[C@H](CC(C)C)CN1CC2 [(+)-α-dihydrotetrabenazine, (2R,3R,11bR)-3-isobutyl-9,10-dimethoxy-1,3,4,6,7,11b-hexahydro-2H-pyrido[2,1,a]isoquinolin-2-01]
solubility thermodynamic at 7 days [1]: 127 µg/mL (≈ 398 µM)
total stereotypic behaviour compared to vehicle-vehicle group (amphetamine-induced rats; Study 1, 0.5 mg/kg plus amphetamine, male CD rats): significantly different
total stereotypic behaviour compared to vehicle-amphetamine group (amphetamine-induced rats; Study 1, 0.5 mg/kg, male CD rats): significantly different
total stereotypic behaviour compared to vehicle-amphetamine group (amphetamine-induced rats; Study 1, 1 mg/kg, male CD rats): significantly different
total stereotypic behaviour compared to vehicle-vehicle group (amphetamine-induced rats; Study 1, 1.5 mg/kg plus amphetamine, male CD rats): significantly different
total stereotypic behaviour compared to vehicle-amphetamine group (amphetamine-induced rats; Study 1, 1.5 mg/kg, male CD rats): significantly different
total stereotypic behaviour compared to vehicle-amphetamine group (amphetamine-induced rats; Study 1, 2 mg/kg, male CD rats): significantly different
locomotor activity compared to vehicle-amphetamine group (amphetamine-induced rats; [3]): lower locomotor activity
stereotypic behaviour compared to vehicle-amphetamine group (amphetamine-induced rats; [3]): reduced stereotypic behaviour
effect suggested by both measured parameters (amphetamine-induced rats; Study 1, locomotor activity and stereotypic behaviour): sedative effect similar to risperidone
total stereotypic behaviour compared to vehicle-amphetamine group (amphetamine-induced rats; Study 2, 0.1 mg/kg, male CD rats): significantly different
total stereotypic behaviour compared to vehicle-amphetamine group (amphetamine-induced rats; Study 2, 0.25 mg/kg, male CD rats): significantly different
total distance travelled compared to vehicle-amphetamine group (amphetamine-induced rats; Study 2, 0.25 mg/kg, male CD rats, listed as (+)-α-DHTBZ): lower locomotor activity
stereotypic behaviour compared to vehicle-amphetamine group (amphetamine-induced rats; Study 2, both the tested doses (0.1 and 0.25 mg/kg)): reduced stereotypic behaviour
Cmax ([2]; dog, plasma, 1.5 mg/kg, male Beagle dogs, oral 1.50 mg/kg (freebase equivalent)): 58.7 ng/mL
mean exposure [2, 4]: 64.26 ng·mL·h
time post dose at which Cmax was observed [2, 4]: 0.25 h
concentration at 6 h ([2]; male, Beagle (HsdRcc:DOBE), dog, plasma, po, 1.5 mg/kg, Plasma concentration of (+)-α-dihydrotetrabenazine, Male 2, oral 1.50 mg/kg (freebase equivalent), 6 h, BLQ = <0.10 ng/mL): 0.113 ng/mL
